Measurements reported in BigSolDB 2.1.

C[C@@H]1CC[C@@]2(OC1)O[C@H]1C[C@H]3[C@@H]4CC=C5C[C@@H](O)CC[C@]5(C)[C@H]4CC[C@]3(C)[C@H]1[C@@H]2C
solubility (mole fraction)
Settings	in n-heptanol	in n-hexanol
300.15 K	–	0.00806
302.26 K	0.0088	–
303.35 K	–	0.00875
305.45 K	0.00959	0.00905
307.65 K	0.0101	–
308.15 K	–	0.00957
309.9 K	0.0106	0.0101
312.12 K	0.0112	0.0107
312.46 K	0.0119	0.0113
313.79 K	–	0.0119
314.11 K	0.0126	–
315.8 K	0.0133	0.0126
317.35 K	–	0.0132
317.75 K	0.014	–
319.26 K	–	0.0139
320.05 K	0.0147	–
320.77 K	–	0.0147
321.07 K	0.0155	–
321.95 K	–	0.0154
323.22 K	0.0163	–
323.95 K	–	0.0161
324.65 K	0.0171	–
325.05 K	–	0.0167
325.35 K	0.0179	–
326.2 K	–	0.0174
327.45 K	0.0188	–
327.95 K	–	0.0181
328.51 K	0.0196	–
329.6 K	0.0202	0.0188
